Several values for one entry are separate records, joined by “and”; a condition that tells them apart may be missing. Equal values may be shown once. Toxic doses and inconclusive results are not listed. Cut-off read from the data, not from the text of the source: active = T/C of 150% or more; inactive = T/C below 125%.
Tested on: L1210 leukemia ip in BDF1 mice, survival T/C
Test: NCI In Vivo Anticancer Drug Screen. Data for tumor model L1210 Leukemia (intraperitoneal) in B6D2F1 (BDF1) mice
Conditions: endpoint: mean survival time, higher = longer survival
How it was run: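 Ratio derived from survival: compound-dosed mice over vehicle-dosed mice, all bearing a transplantable tumor.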

[1] = dose: 100.0 mg/kg/injection, schedule: Q01DX001 (ip), vehicle: Klucel (hydroxypropylcellulose) (HPC)
[2] = dose: 200.0 mg/kg/injection, schedule: Q01DX001 (ip), vehicle: Klucel (hydroxypropylcellulose) (HPC)
[3] = dose: 400.0 mg/kg/injection, schedule: Q01DX001 (ip), vehicle: Klucel (hydroxypropylcellulose) (HPC)
[4] = dose: 100.0 mg/kg/injection, schedule: Q01DX009 (ip), vehicle: Klucel (hydroxypropylcellulose) (HPC)
[5] = dose: 100.0 mg/kg/injection, schedule: Q04DX002 (ip), vehicle: Klucel (hydroxypropylcellulose) (HPC)
[6] = dose: 100.0 mg/kg/injection, schedule: Q04DX003 (ip), vehicle: Klucel (hydroxypropylcellulose) (HPC)
[7] = dose: 200.0 mg/kg/injection, schedule: Q01DX009 (ip), vehicle: Klucel (hydroxypropylcellulose) (HPC)
[8] = dose: 200.0 mg/kg/injection, schedule: Q04DX002 (ip), vehicle: Klucel (hydroxypropylcellulose) (HPC)
[9] = dose: 200.0 mg/kg/injection, schedule: Q04DX003 (ip), vehicle: Klucel (hydroxypropylcellulose) (HPC)
[10] = dose: 400.0 mg/kg/injection, schedule: Q04DX002 (ip), vehicle: Klucel (hydroxypropylcellulose) (HPC)
[11] = dose: 400.0 mg/kg/injection, schedule: Q04DX003 (ip), vehicle: Klucel (hydroxypropylcellulose) (HPC)
[12] = dose: 100.0 mg/kg/injection, schedule: Q01DX001 (ip), vehicle: carboxymethylcellulose (CMC)
[13] = dose: 200.0 mg/kg/injection, schedule: Q01DX001 (ip), vehicle: carboxymethylcellulose (CMC)
[14] = dose: 400.0 mg/kg/injection, schedule: Q01DX001 (ip), vehicle: carboxymethylcellulose (CMC)
[15] = dose: 40.0 mg/kg/injection, schedule: Q01DX009 (ip), vehicle: Klucel (hydroxypropylcellulose) (HPC)
[16] = dose: 75.0 mg/kg/injection, schedule: Q01DX001 (ip), vehicle: Klucel (hydroxypropylcellulose) (HPC)
[17] = dose: 75.0 mg/kg/injection, schedule: Q01DX009 (ip), vehicle: Klucel (hydroxypropylcellulose) (HPC)
[18] = dose: 150.0 mg/kg/injection, schedule: Q01DX001 (ip), vehicle: Klucel (hydroxypropylcellulose) (HPC)
[19] = dose: 150.0 mg/kg/injection, schedule: Q01DX009 (ip), vehicle: Klucel (hydroxypropylcellulose) (HPC)
[20] = dose: 100.0 mg/kg/injection, schedule: Q01DX001 (ip), vehicle: saline with Tween-80
[21] = dose: 200.0 mg/kg/injection, schedule: Q01DX001 (ip), vehicle: saline with Tween-80
[22] = dose: 400.0 mg/kg/injection, schedule: Q01DX001 (ip), vehicle: saline with Tween-80
[23] = dose: 50.0 mg/kg/injection, schedule: Q01DX009 (ip), vehicle: Klucel (hydroxypropylcellulose) (HPC)
[24] = dose: 100.0 mg/kg/injection, schedule: Q04DX003 (ip), vehicle: saline with Tween-80

Measured: T/C

CC(=O)NCCOc1ccc([N+](=O)[O-])cc1
inactive: [1] 102 % of control | [2] 102 % of control | [3] 102 % of control

Cc1cccc(NC(=O)Oc2ccccc2C(N)=O)c1
inactive: [1] 94 % of control | [4] 94 % of control | [5] 94 % of control and 100 % of control | [6] 95 % of control | [2] 95 % of control | [7] 96 % of control | [8] 98 % of control | [9] 95 % of control | [3] 106 % of control | dose: 400.0 mg/kg/injection, schedule: Q01DX009 (ip), vehicle: Klucel (hydroxypropylcellulose) (HPC) 91 % of control and 92 % of control | [10] 94 % of control and 96 % of control | [11] 93 % of control

CC/S(=N\S(=O)(=O)c1ccc(C)cc1)c1ccccc1 (centres undefined)
inactive: dose: 100.0 mg/kg/injection, schedule: Q01DX009 (ip), vehicle: saline with Tween-80 108 % of control | dose: 200.0 mg/kg/injection, schedule: Q01DX009 (ip), vehicle: saline with Tween-80 100 % of control | dose: 400.0 mg/kg/injection, schedule: Q01DX009 (ip), vehicle: saline with Tween-80 100 % of control

CC(C)(C)NC(=O)Nc1nccs1
inactive: dose: 100.0 mg/kg/injection, schedule: Q01DX009 (ip), vehicle: other 100 % of control | dose: 200.0 mg/kg/injection, schedule: Q01DX009 (ip), vehicle: other 107 % of control

ClC(Cl)(Cl)c1cccc(C(Cl)(Cl)Cl)n1
inactive: dose: 100.0 mg/kg/injection, schedule: Q04DX003 (sc), vehicle: olive oil, sesame oil, peanut oil 97 % of control and 103 % of control | dose: 200.0 mg/kg/injection, schedule: Q04DX003 (sc), vehicle: olive oil, sesame oil, peanut oil 97 % of control and 103 % of control | dose: 400.0 mg/kg/injection, schedule: Q04DX003 (sc), vehicle: olive oil, sesame oil, peanut oil 100 % of control and 101 % of control

CNC(=O)Oc1cccc(C(F)(F)F)c1
inactive: [12] 90 % of control | [13] 98 % of control | [14] 92 % of control

CC(=O)OC1=C(c2ccccc2)C(=O)c2ccccc21
inactive: [15] 94 % of control | [16] 95 % of control | [17] 94 % of control | [18] 96 % of control | [19] 88 % of control

O=C(Nc1ccc(Cl)c([N+](=O)[O-])c1)Oc1ccccc1F
inactive: [4] 92 % of control | [6] 97 % of control | [7] 101 % of control | [9] 97 % of control | [11] 96 % of control

CCCCCC#CC(C)OC(=O)Nc1cccc2ccccc12 (centres undefined)
inactive: [20] 96 % of control | [21] 98 % of control | [22] 86 % of control

NS(=O)(=O)c1ccc(N=Nc2ncc[nH]2)cc1
inactive: [23] 94 % of control | [4] 94 % of control | [7] 94 % of control

O=C(O)c1cccc2cccc(C(=O)c3cccs3)c12
inactive: [24] 91 % of control | dose: 200.0 mg/kg/injection, schedule: Q04DX003 (ip), vehicle: saline with Tween-80 98 % of control | dose: 400.0 mg/kg/injection, schedule: Q04DX003 (ip), vehicle: saline with Tween-80 91 % of control

NC1=NC(CCc2ccccc2)N(c2ccc3ccccc3c2)C(N)=N1 (centres undefined)
inactive: dose: 4.7 mg/kg/injection, schedule: Q01DX009 (ip), vehicle: saline sonified 96 % of control | dose: 9.4 mg/kg/injection, schedule: Q01DX009 (ip), vehicle: saline sonified 103 % of control | dose: 18.8 mg/kg/injection, schedule: Q01DX001 (ip), vehicle: saline 91 % of control

C=C(C)C(O)CC(C)C (centres undefined)
inactive: [12] 100 % of control | [13] 100 % of control | [14] 94 % of control

CCCCC/C=C(\CCCCCC)c1ccccc1
inactive: [20] 98 % of control | [21] 95 % of control | [22] 90 % of control

CCOP(=S)(OCC)SC(C)(C)C
inactive: dose: 25.0 mg/kg/injection, schedule: Q04DX003 (ip), vehicle: saline with Tween-80 95 % of control | dose: 50.0 mg/kg/injection, schedule: Q04DX003 (ip), vehicle: saline with Tween-80 103 % of control | [24] 104 % of control and 108 % of control

Cc1cccc(N2P(N(C)C)N(c3cccc(C)c3)P2(=O)N(C)C)c1 (centres undefined)
inactive: [5] 97 % of control | [8] 111 % of control | [10] 94 % of control

C=CCSc1nccc(=O)[nH]1
inactive: [4] 110 % of control | [7] 96 % of control

CC1C(=O)CCC2(C)CCCCC12 (centres undefined)
inactive: dose: 75.0 mg/kg/injection, schedule: Q01DX001 (ip), vehicle: other 103 % of control | dose: 150.0 mg/kg/injection, schedule: Q01DX001 (ip), vehicle: other 101 % of control | dose: 300.0 mg/kg/injection, schedule: Q01DX001 (ip), vehicle: other 103 % of control

CCOC(=O)c1ccc(NC(=S)NC(Cc2ccccc2)c2ccccc2)cc1 (centres undefined)
inactive: dose: 100.0 mg/kg/injection, schedule: Q04DX002 (ip), vehicle: saline with Tween-80 98 % of control | dose: 200.0 mg/kg/injection, schedule: Q04DX002 (ip), vehicle: saline with Tween-80 95 % of control | dose: 400.0 mg/kg/injection, schedule: Q04DX002 (ip), vehicle: saline with Tween-80 95 % of control

COC(=O)/C=C\C(=O)O (tested in a mixture with another compound)
inactive: dose: 15.5 mg/kg/injection, schedule: Q#A X Z (oral), vehicle: carboxymethylcellulose (CMC) 98 % of control | dose: 31.25 mg/kg/injection, schedule: Q#A X Z (ip), vehicle: carboxymethylcellulose (CMC) 101 % of control | dose: 31.5 mg/kg/injection, schedule: Q#A X Z (oral), vehicle: carboxymethylcellulose (CMC) 100 % of control | dose: 63.0 mg/kg/injection, schedule: Q#A X Z (oral), vehicle: carboxymethylcellulose (CMC) 100 % of control | dose: 126.0 mg/kg/injection, schedule: Q#A X Z (oral), vehicle: carboxymethylcellulose (CMC) 100 % of control

CC1C(=O)CCC2(C)CCC(C(=O)/C=C/c3ccco3)CC12 (centres undefined)
inactive: [1] 100 % of control | [2] 102 % of control | [3] 89 % of control

CCCc1cc2c(cc1CS(=O)(=O)c1ccccc1)OCO2
inactive: dose: 12.5 mg/kg/injection, schedule: Q01DX009 (ip), vehicle: Klucel (hydroxypropylcellulose) (HPC) 97 % of control | dose: 25.0 mg/kg/injection, schedule: Q01DX009 (ip), vehicle: Klucel (hydroxypropylcellulose) (HPC) 112 % of control | [23] 108 % of control | [4] 101 % of control and 102 % of control | [6] 94 % of control | [7] 102 % of control | [9] 97 % of control | [11] 101 % of control

CCOC(=O)C=C1CCP(C)CC1 (centres undefined)
inactive: dose: 75.0 mg/kg/injection, schedule: Q01DX001 (ip), vehicle: carboxymethylcellulose (CMC) 103 % of control | dose: 150.0 mg/kg/injection, schedule: Q01DX001 (ip), vehicle: carboxymethylcellulose (CMC) 94 % of control

O=CNC(CSC(c1ccccc1)c1ccccc1)C(=O)O (centres undefined)
inactive: [15] 108 % of control | [16] 86 % of control | [17] 105 % of control | [18] 93 % of control | [19] 103 % of control

Cc1c([N+](=O)[O-])cc(C(C)(C)C)c(OC(=O)C(C)(C)C)c1[N+](=O)[O-]
inactive: dose: 25.0 mg/kg/injection, schedule: Q04DX002 (ip), vehicle: Klucel (hydroxypropylcellulose) (HPC) 95 % of control | dose: 50.0 mg/kg/injection, schedule: Q04DX002 (ip), vehicle: Klucel (hydroxypropylcellulose) (HPC) 100 % of control | [5] 92 % of control
